{
  "source": "patent US20200281965A1",
  "about": "“[…] NITRIC OXIDE” (Beyond Air, Inc., priority 2017, published 2020)",
  "key": {"[1]": {"assay": "safety monitoring of human subjects undergoing intermittent gNO inhalation", "format": "in vivo", "description": "In some embodiments, the methods disclosed herein are effected while monitoring various parameters relevant for maintaining the desired dosage and regimen, relevant to the safety of the procedure and relevant for efficacy of the treatment. Exemplary such parameters are those obtainable on-site in real-time, such as methemoglobin level, end-tidal CO2 level, and oxygenation, and parameters which are obtainable off-site in the laboratory, such as blood nitrite level, urine nitrite level, and inflammatory markers' level. […] Embodiments of the present invention therefore relate to methods of administering gaseous nitric oxide to human subjects in need thereof, while these parameters remain substantially unchanged.\nAs methemoglobin levels can be measured using noninvasive measures, the parameter of percent saturation at the periphery of methemoglobin (SpMet) is used to monitor the stability, safety and effectiveness of the method presented herein."}, "[2]": {"system": "human influenza (influenza A/victoria H3N2) and highly pathogenic avian influenza (H7N2)", "format": "cell-based, influenza virus"}, "[3]": {"system": "human respiratory syncytial virus (rgRSV30)", "format": "cell-based"}, "[4]": {"conditions": "human subjects undergoing the disclosed regimen"}},
  "data": [
    {"smiles": "[N]=O", "note": "[gNO, nitric oxide]", "values": [
      {"measurement": "change in inflammatory markers", "setting": "[1]; [4]", "result": "no substantial change"},
      {"measurement": "change in methemoglobin level", "setting": "[1]; [4]", "result": "no substantial change"},
      {"measurement": "change in serum nitrite level", "setting": "[1]; [4]", "result": "no substantial change"},
      {"measurement": "SpMet level (percent saturation at the periphery of methemoglobin)", "setting": "[1]; human subjects undergoing the method, during and following administration", "result": "≤ 1", "unit": "%"},
      {"measurement": "infectivity of influenza", "setting": "[2]", "result": "reduced their infectivity"},
      {"measurement": "infectivity of RSV", "setting": "[3]", "result": "reduced their infectivity"}
    ]}
  ]
}
